Consider 23 compounds from patent publication US20240391948A1, “NOVEL COMPOUND THAT INHIBITS TNF-ALPHA GENERATION AND INFLAMMASOME ACTIVITY AND PREPARATION METHOD THEREFOR” (SHAPERON INC., priority 2021, published 2024).

Assay type in all cases: cell-based
The subject of experiment [1] is U937 cells (human monocytic cell line). The experiment in a line: BzATP-induced IL-1β secretion inhibition in PMA-differentiated U937 cells. As to conditions: U-937, U937 cells differentiated with PMA, read-out: IL-1β production inhibition grade (IC50). The method in brief: (§1)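 U937 cells were PMA-differentiated into macrophages and treated with compound before inflammatory stimulus. TNF-α secretion was induced with Pam2CSK4 and IL-1β secretion with BzATP. IC50 (μM) values are graded A-D, with separate cut-offs per cytokine.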

Experiment [2] has the same test system. Kind of experiment: Pam2CSK4-induced TNF-α secretion inhibition in PMA-differentiated U937 cells. To be noted: U-937, U937 cells differentiated with PMA, read-out: TNF-α production inhibition grade (IC50). The method in brief: as §1
The test system of experiment [3] is J774A.1 (Mouse BALB/c monocyte macrophage cell line) cells. Kind of experiment: LPS+ATP-induced IL-1β secretion inhibition in J774A.1 cells. To be noted: J774.A1, 1 μM compound, graded compared to taurodeoxycholic acid (positive control), read-out: IL-1β production inhibition grade. The procedure, abridged:
(§2)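 Mouse J774A.1 macrophages treated with 1 μM compound; TNF-α secretion measured after LPS stimulation and IL-1β secretion after LPS+ATP stimulation. Suppression graded against taurodeoxycholic acid: A over 100%, B 50–100%, C 20–50%, D under 20%.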

The test system is the same in experiment [4]. Kind of experiment: LPS-induced TNF-α secretion inhibition in J774A.1 cells. To be noted: J774.A1, 1 μM compound, graded compared to taurodeoxycholic acid (positive control), read-out: TNF-α production inhibition grade. The procedure, abridged: as §2

The term IC50 denotes the point on the concentration scale where inhibition reaches its midpoint. For orientation: inhibition means the share of the control response that was lost under treatment. As for `CC[C@H]1[C@@H](O)[C@@H]2[C@H](CC[C@]3(C)[C@@H]([C@H](C)CCC(=O)NC4(CS(=O)(=O)O)CC4)CC[C@@H]23)[C@@]2(C)CC[C@@H](O)C[C@@H]12` [NC40032], the values for the IC50 in experiment [1] and in experiment [2] were no less than 200 nM and 1000 to 2000 nM, respectively. In addition, the inhibition at 1 µM in experiment [3] and in experiment [4] was less than 20% throughout.

In the case of `CC[C@H]1[C@@H](O)[C@@H]2[C@H](CC[C@]3(C)[C@@H]([C@H](C)CCC(=O)N4CC[C@H](S(=O)(=O)O)C4)CC[C@@H]23)[C@@]2(C)CC[C@@H](O)C[C@@H]12` [NC40033], the values for the IC50 in experiment [1] and in experiment [2] were less than 50 nM and less than 500 nM, respectively. In addition, the inhibition at 1 µM in experiment [3] and in experiment [4] was greater than 100% in each case.

On to `CC[C@H]1[C@@H](O)[C@@H]2[C@H](CC[C@]3(C)[C@@H]([C@H](C)CCC(=O)N4CC[C@@H](S(=O)(=O)O)C4)CC[C@@H]23)[C@@]2(C)CC[C@@H](O)C[C@@H]12` [NC40034], for which the IC50 was less than 50 nM in experiment [1] and less than 500 nM in experiment [2]. Also, the inhibition at 1 µM in experiment [3] was greater than 100%; in experiment [4], 20 to 50%.

`CC[C@H]1[C@@H](O)[C@@H]2[C@H](CC[C@]3(C)[C@@H]([C@H](C)CCC(=O)N(CCN(C)C)CCS(=O)(=O)O)CC[C@@H]23)[C@@]2(C)CC[C@@H](O)C[C@@H]12` [NC40035]: the IC50 in experiment [1] was 50 to 100 nM; in experiment [2] it was less than 500 nM. Also, the inhibition at 1 µM was greater than 100% in experiment [3] and less than 20% in experiment [4].

On to `CC[C@H]1[C@@H](O)[C@@H]2[C@H](CC[C@]3(C)[C@@H]([C@H](C)CCC(=O)N(CCS(=O)(=O)O)Cc4cccnc4)CC[C@@H]23)[C@@]2(C)CC[C@@H](O)C[C@@H]12` [NC40036], for which the IC50 in experiment [1] was in the range of 50 to 100 nM; in experiment [2], 1000 to 2000 nM. The inhibition at 1 µM in experiment [3] was 50 to 100%; in experiment [4], less than 20%.

`CC[C@H]1[C@@H](O)[C@@H]2[C@H](CC[C@]3(C)[C@@H]([C@H](C)CCC(=O)N(CCS(=O)(=O)O)c4ccccc4)CC[C@@H]23)[C@@]2(C)CC[C@@H](O)C[C@@H]12` [NC40037]: the IC50 in experiment [1] is 50 to 100 nM; in experiment [2], 500 to 1000 nM. In addition, the values for the inhibition at 1 µM in experiment [3] and in experiment [4] were 20 to 50% and less than 20%, respectively.

For `CC[C@H]1[C@@H](O)[C@@H]2[C@H](C[C@H](O)[C@]3(C)[C@@H]([C@H](C)CCC(=O)N(C)CCS(=O)(=O)O)CC[C@@H]23)[C@@]2(C)CC[C@@H](O)C[C@@H]12` [NC50004], the figures for the IC50 in experiment [1] and in experiment [2] were 100 to 200 nM and no less than 2000 nM, respectively. The inhibition at 1 µM in experiment [3] and in experiment [4] was less than 20% throughout.

On to `CC[C@H]1[C@@H](O)[C@@H]2[C@H](C[C@H](O)[C@]3(C)[C@@H]([C@H](C)CCC(=O)N(CCO)CCS(=O)(=O)O)CC[C@@H]23)[C@@]2(C)CC[C@@H](O)C[C@@H]12` [NC50006], for which the IC50 in experiment [1] was less than 50 nM; in experiment [2], no less than 2000 nM. In addition, the inhibition at 1 µM in experiment [3] and in experiment [4] was less than 20% in each case.

As for `CC[C@H]1[C@@H](O)[C@@H]2[C@H](C[C@H](O)[C@]3(C)[C@@H]([C@H](C)CCC(=O)N(CCS(=O)(=O)O)C(C)C)CC[C@@H]23)[C@@]2(C)CC[C@@H](O)C[C@@H]12` [NC50007], the IC50 is 50 to 100 nM in experiment [1] and 1000 to 2000 nM in experiment [2]. The inhibition at 1 µM in experiment [3] is greater than 100%; in experiment [4] it was less than 20%.

With `CC[C@H]1[C@@H](O)[C@@H]2[C@H](C[C@H](O)[C@]3(C)[C@@H]([C@H](C)CCC(=O)N(CCS(=O)(=O)O)C4CCOCC4)CC[C@@H]23)[C@@]2(C)CC[C@@H](O)C[C@@H]12` [NC50008], the IC50 was less than 50 nM in experiment [1] and 500 to 1000 nM in experiment [2]. For the same compound, the inhibition at 1 µM in experiment [3] is greater than 100%; in experiment [4], less than 20%.

For the compound `CC[C@H]1[C@@H](O)[C@@H]2[C@H](C[C@H](O)[C@]3(C)[C@@H]([C@H](C)CCC(=O)N4CCC[C@@H](S(=O)(=O)O)C4)CC[C@@H]23)[C@@]2(C)CC[C@@H](O)C[C@@H]12` [NC50010], the IC50 in experiment [1] was 100 to 200 nM; in experiment [2], no less than 2000 nM. Further, the figures for the inhibition at 1 µM in experiment [3] and in experiment [4] were greater than 100% and less than 20%, respectively.

`CC[C@H]1[C@@H](O)[C@@H]2[C@H](C[C@H](O)[C@]3(C)[C@@H]([C@H](C)CCC(=O)N4CC(S(=O)(=O)O)C4)CC[C@@H]23)[C@@]2(C)CC[C@@H](O)C[C@@H]12` [NC50012]: the IC50 in experiment [1] is less than 50 nM; in experiment [2], 1000 to 2000 nM. Moreover, the inhibition at 1 µM in experiment [3] was greater than 100%; in experiment [4] it was less than 20%.

For `CC[C@H]1[C@@H](O)[C@@H]2[C@H](C[C@H](O)[C@]3(C)[C@@H]([C@H](C)CCC(=O)NC(C)(C)CS(=O)(=O)O)CC[C@@H]23)[C@@]2(C)CC[C@@H](O)C[C@@H]12` [NC50013], the IC50 in experiment [1] was less than 50 nM; in experiment [2], 1000 to 2000 nM. In addition, the inhibition at 1 µM in experiment [3] was greater than 100%; in experiment [4], less than 20%.

For the compound `CC[C@H]1[C@@H](O)[C@@H]2[C@H](C[C@H](O)[C@]3(C)[C@@H]([C@H](C)CCC(=O)N[C@H](Cc4ccccc4)CS(=O)(=O)O)CC[C@@H]23)[C@@]2(C)CC[C@@H](O)C[C@@H]12` [NC50015], the IC50 in experiment [1] was in the range of 50 to 100 nM; in experiment [2], 1000 to 2000 nM. Besides, the inhibition at 1 µM in experiment [3] is greater than 100%; in experiment [4], less than 20%.

Consider `CC[C@H]1[C@@H](O)[C@@H]2[C@H](C[C@H](O)[C@]3(C)[C@@H]([C@H](C)CCC(=O)N[C@H](CS(=O)(=O)O)C(C)C)CC[C@@H]23)[C@@]2(C)CC[C@@H](O)C[C@@H]12` [NC50016], for which the results for the IC50 in experiment [1] and in experiment [2] were 50 to 100 nM and 500 to 1000 nM, respectively. The figures for the inhibition at 1 µM in experiment [3] and in experiment [4] were greater than 100% and less than 20%, respectively.

Regarding `CC[C@H]1[C@@H](O)[C@@H]2[C@H](C[C@H](O)[C@]3(C)[C@@H]([C@H](C)CCC(=O)N[C@H](CS(=O)(=O)O)c4ccccc4)CC[C@@H]23)[C@@]2(C)CC[C@@H](O)C[C@@H]12` [NC50018], the IC50 in experiment [1] is 50 to 100 nM; in experiment [2] it was no less than 2000 nM. Moreover, the inhibition at 1 µM is 50 to 100% in experiment [3] and less than 20% in experiment [4].

As to `CC[C@H]1[C@@H](O)[C@@H]2[C@H](C[C@H](O)[C@]3(C)[C@@H]([C@H](C)CCC(=O)N[C@@H](CS(=O)(=O)O)c4ccccc4)CC[C@@H]23)[C@@]2(C)CC[C@@H](O)C[C@@H]12` [NC50019], the IC50 in experiment [1] was no less than 200 nM; in experiment [2], 1000 to 2000 nM. For the same compound, the inhibition at 1 µM in experiment [3] is 50 to 100%; in experiment [4], less than 20%.

Turning to `CC[C@H]1[C@@H](O)[C@@H]2[C@H](C[C@H](O)[C@]3(C)[C@@H]([C@H](C)CCC(=O)N4CCC[C@H]4CS(=O)(=O)O)CC[C@@H]23)[C@@]2(C)CC[C@@H](O)C[C@@H]12` [NC50021], the IC50 in experiment [1] is no less than 200 nM; in experiment [2] it was 500 to 1000 nM. Besides, the inhibition at 1 µM in experiment [3] was 20 to 50%; in experiment [4], less than 20%.

In the case of `CC[C@H]1[C@@H](O)[C@@H]2[C@H](C[C@H](O)[C@]3(C)[C@@H]([C@H](C)CCC(=O)N[C@@H](CO)CS(=O)(=O)O)CC[C@@H]23)[C@@]2(C)CC[C@@H](O)C[C@@H]12` [NC50024], the IC50 in experiment [1] is no less than 200 nM; in experiment [2], no less than 2000 nM. For the same compound, the inhibition at 1 µM was 20 to 50% in experiment [3] and less than 20% in experiment [4].

With `CC[C@H]1[C@@H](O)[C@@H]2[C@H](C[C@H](O)[C@]3(C)[C@@H]([C@H](C)CCC(=O)N[C@H]4CCCC[C@H]4S(=O)(=O)O)CC[C@@H]23)[C@@]2(C)CC[C@@H](O)C[C@@H]12` [NC50027], the IC50 in experiment [1] was no less than 200 nM; in experiment [2] it was 1000 to 2000 nM. Moreover, the inhibition at 1 µM in experiment [3] was 20 to 50%; in experiment [4], less than 20%.

Turning to `CC[C@H]1[C@@H](O)[C@@H]2[C@H](C[C@H](O)[C@]3(C)[C@@H]([C@H](C)CCC(=O)N[C@@H](C)CS(=O)(=O)O)CC[C@@H]23)[C@@]2(C)CC[C@@H](O)C[C@@H]12` [NC50028], the figures for the IC50 in experiment [1] and in experiment [2] were no less than 200 nM and 1000 to 2000 nM, respectively. Further, the values for the inhibition at 1 µM in experiment [3] and in experiment [4] were 50 to 100% and less than 20%, respectively.

With `CC[C@H]1[C@@H](O)[C@@H]2[C@H](C[C@H](O)[C@]3(C)[C@@H]([C@H](C)CCC(=O)N[C@H](C)CS(=O)(=O)O)CC[C@@H]23)[C@@]2(C)CC[C@@H](O)C[C@@H]12` [NC50029], the IC50 in experiment [1] is no less than 200 nM; in experiment [2] it was 500 to 1000 nM. Also, the values for the inhibition at 1 µM in experiment [3] and in experiment [4] were 50 to 100% and less than 20%, respectively.

For `CC[C@H]1[C@@H](O)[C@@H]2[C@H](C[C@H](O)[C@]3(C)[C@@H]([C@H](C)CCC(=O)N[C@@H](CC(C)C)CS(=O)(=O)O)CC[C@@H]23)[C@@]2(C)CC[C@@H](O)C[C@@H]12` [NC50030], the IC50 was 100 to 200 nM in experiment [1] and no less than 2000 nM in experiment [2]. Further, the inhibition at 1 µM in experiment [3] was 50 to 100%; in experiment [4] it was less than 20%.
